The text below walks through data of paper PMC11760621, “Secondary metabolites of Alternaria alternate appraisal of their SARS-CoV-2 inhibitory and anti-inflammatory potentials” (PLOS ONE, 2025).

The subject of data set [1] is ACE-2 protein expression in HLMEC. The data set can be described thus: Western blot of ACE-2 protein expression in HLMEC. As to conditions: 25 μM, 48 h, western blot vs untreated cells. It counts as cell-based, human. Here is the method: HLMEC cells were seeded, cultured, and incubated with compounds 1–4 for 48h. RIPA buffer (Cell Signaling, Danvers, MA) was employed to obtain the entire-cell protein lysates. Bradford method was used to determine the concentration of protein. Western blot assay was done as previously stated using untreated cells as control. Anti-ACE-2 antibody [EPR24705-45] ab272500 (Abcam, Cambridge, UK) was used.
(§1) An experimental model of HLMEC was applied to study the effects of the endophytic compounds 1–4 on ACE-2 protein expression. Preceding this analysis, the cytotoxic effect of compounds 1–4 was determined on HLMEC using an MTT assay. HLMEC were treated with different dilutions of the test samples (0.39–100 μM) for 48 h. Compounds 1–4 being nontoxic (IC50>100 μM, Table 6).

In a further data set the target is T1, TNF-α: TNFR2 (Homo sapiens, UniProt P01375).
T1 construct: purchased BPS bioscience
The data set can be described thus: TNFR2: TNF-α [Biotinylated] inhibitor screening assay. It counts as binding. The note with it: in vitro kit, mean ± SD. From the text:
In vitro TNF-α [Biotinylated] inhibition assay. TNFR2: TNF-α [Biotinylated] inhibitor screening assay kit (BPS bioscience, Cornerstone Court W, Ste B San Diego, CA 92121) was used to screen for the in vitro inhibition of TNF-α binding to tumor necrosis factor receptor 2 (TNFR2) following the manufacturer’s protocol.

Data set [2] has as its system Human lung microvascular endothelial cells (HLMEC). Kind of data set: MTT cell viability assay in HLMEC. It counts as cell-based. As to conditions: 48 h, read-out: IC50, viability of HLMEC. On the procedure: Human lung microvascular endothelial cells (HLMEC) were acquired from Lonza (Hayward, CA, USA). The cells were seeded in an endothelial cell growth medium (EGM-2 MV) (Lonza, Hayward, CA, USA) at 37°C and 5% CO2. Then, at 5 to 7 passages, the cells were plated in 100 μL/well EGM-2 MV medium in collagen-covered 96-well plates. The cells were grown for 3–5 days to reach the confluent layer. Cell viability was valued by the MTT Cell Growth Assay Kit (Sigma-Aldrich, Steinheim, Germany) using untreated cells as control.
as §1

In data set [3] the target is ACE-2: SARS-CoV-2 Spike (RBD) (Homo sapiens, UniProt Q9BYF1). The data set can be described thus: ACE-2: Spike RBD (SARS-CoV-2) inhibitor screening colorimetric assay. As to conditions: in vitro colorimetric kit; mean ± SD; read-out: IC50, ACE2 spike RBD (SARS-CoV-2) inhibitory effect. It counts as binding, human; SARS-CoV-2.
Data set [4] can be described thus: Solubility observation of the isolated compound. The note with it: observation on the isolated oil. The data set is classed as physicochemical. From the text: In addition, there were complex multiplet overlapping signals for several hydrogen protons characteristic for different methylene groups laying in the same chemical environment (H- 5’/5’’, H-6’/6’’, H-11’/11’’ and 12’/12’’). […] In addition to two carbonyl carbons, one of which (C-1’/1’’ δC 167.7) is upfield due to its attachment to the aromatic ring while the other is downfield (C-9’/9’’, δC 174.0). The downfield shift of the two-methylene groups 3’/3’’ (δC, 68.2) and 7’/7’’ (δC 66.7) confirm their attachment to O-C = O. Moreover, the structure contained only one methine group at δC 38.7 (CH- 4’/4’’) and two methyl groups CH3-13’/13’’ and 14’/14’’ at δC 10.9 and 14.0, respectively. Furthermore, there were another five CH2 groups at δC 30.4, 23.7, 34.4, 25.0, and 29.1 for C-5’, 6’, 10’,11’, and 12’, respectively. H-H-COSY (Fig 1) established the correlation between the aromatic ring’s protons and that between the side chains’ protons. Additionally, HMBC data (Fig 1) confirmed the substitution of the aromatic ring through the correlation from H-2/5 ([…]) to C-3/4 (δC 130.9) and that between H-3/4 (δC 7.54) and C-2/5 (δC 128.8). The connectivity of the side chain to the aromatic ring at C-1 and C-6 was established through the correlation from H-2/5 (δH 7.72) to C-1`/1” (δC 167.7). […]

Data set [5] has as its system TNF-α mRNA in LPS-stimulated RAW 264.7 macrophages. Kind of data set: TNF-α gene expression (qRT-PCR) in LPS-induced RAW 264.7 cells. It counts as cell-based. As to conditions: LPS (1 μg/mL)-stimulated RAW 264.7, sub IC50 concentration, relative to LPS control, referenced to Actb. On the procedure:
(§2) Evaluation of pro-inflammatory cytokines (TNF- α and IL-6) using LPS-induced RAW 264.7 cells. RAW 264.7 macrophage cells were procured from the American Type Culture Collection (Manassas, VA, USA) and grown as previously described. In vitro Toxicology Assay Kit, MTT Based (Sigma-Aldrich, Saint Louis, Missouri, USA) was employed to establish cell viability at concentrations (1–250 μM). Treatment of RAW 264.7 cells and determination of the inhibitory effect of the active compounds at sub IC50 values on TNF- α and IL-6 gene expression in RAW264.7 cells were performed as mentioned before using LPs treated cells as control.

For data set [6], the system named is IL-6 mRNA in LPS-stimulated RAW 264.7 macrophages. The data set can be described thus: IL-6 gene expression (qRT-PCR) in LPS-induced RAW 264.7 cells. The data set is classed as cell-based. The note with it: LPS (1 μg/mL)-stimulated RAW 264.7, sub IC50 concentration, relative to LPS control, referenced to Actb. On the procedure:
as §2
Background: Quantitative PCR measures a nucleic acid by following its amplification.

The mark [7] stands for this setting: read-out: IC50, TNF-α: TNFR2 inhibitory effect.

The structures appear in SMILES notation. Where two headings read alike, the source gives them in different places.

Chain of ACE-2: SARS-CoV-2 Spike (RBD) (Q9BYF1 18-740): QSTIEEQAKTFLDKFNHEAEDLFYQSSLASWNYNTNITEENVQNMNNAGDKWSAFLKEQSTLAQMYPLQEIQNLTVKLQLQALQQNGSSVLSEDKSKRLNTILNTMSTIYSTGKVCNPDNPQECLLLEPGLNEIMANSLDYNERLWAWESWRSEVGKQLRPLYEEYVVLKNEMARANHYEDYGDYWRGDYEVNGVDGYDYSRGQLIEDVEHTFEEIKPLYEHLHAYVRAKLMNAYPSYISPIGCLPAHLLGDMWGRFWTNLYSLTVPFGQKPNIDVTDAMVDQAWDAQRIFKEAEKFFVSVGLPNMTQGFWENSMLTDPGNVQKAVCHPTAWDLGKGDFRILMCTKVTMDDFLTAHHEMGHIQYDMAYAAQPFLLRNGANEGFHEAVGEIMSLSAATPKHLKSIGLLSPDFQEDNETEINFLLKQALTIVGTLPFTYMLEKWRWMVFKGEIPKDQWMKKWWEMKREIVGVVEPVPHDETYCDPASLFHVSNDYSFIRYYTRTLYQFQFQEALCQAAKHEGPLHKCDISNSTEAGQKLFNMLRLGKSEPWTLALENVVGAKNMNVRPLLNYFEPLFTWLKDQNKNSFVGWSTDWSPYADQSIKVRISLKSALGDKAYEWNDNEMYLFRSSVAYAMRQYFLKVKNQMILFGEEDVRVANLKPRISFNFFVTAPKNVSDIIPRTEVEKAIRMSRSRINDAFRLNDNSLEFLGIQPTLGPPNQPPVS
T1 sequence (P01375 77-233 limits assumed): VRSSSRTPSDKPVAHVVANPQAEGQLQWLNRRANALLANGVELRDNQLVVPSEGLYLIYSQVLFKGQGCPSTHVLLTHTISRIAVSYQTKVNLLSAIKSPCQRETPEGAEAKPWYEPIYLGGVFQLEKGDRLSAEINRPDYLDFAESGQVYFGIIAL

With `CC1CCC2C(C1)c1ccccc1C1CCCCC(C)N12` (centres unmarked) [Compound 1, altenuline], the “ACE2% inhibition (ACE2 protein expression)” value (shortened to “ACE2% inhibition”) in data set [1] came out at 49.65 ± 3.06 %. In addition, the values for the half-inhibitory concentration (IC50) (at TNF-α: TNFR2 (setting [7]); in data set [2]; in data set [3]) were 8.7 ± 0.34 µM, > 100 µM and 15.5 ± 0.45 µM, respectively.
Regarding `CCCCC(=O)OCCCC(C)COC(=O)c1ccccc1C(=O)OCC(C)CCCOC(=O)CCCC` (centres unmarked) [Compound 2, phthalic acid bis (7’/7’’ pentyloxy) isohexyl ester], the “ACE2% inhibition” value in data set [1] was found to be 70.51± 4.80%. Moreover, the half-inhibitory concentration (IC50) (commonly the concentration that gives 50% inhibition) on TNF-α: TNFR2 (setting [7]) was 5.4 ± 0.33 µM; in data set [2], > 100 µM; in data set [3] it was 10.4 ± 0.25 µM. Moreover, the solubility in water result in data set [4] is recorded as “insoluble in water”. Also, the “TNF-α mRNA expression fold change” value in data set [5] came to 0.45 ± 0.07. In addition, the “IL-6 mRNA expression fold change” value in data set [6] was 0.30 ± 0.02.
For the molecule `COc1cc(O)c2c(=O)oc3c(c2c1)C(C)CC3=O` (centres unmarked) [Compound 3, 1-deoxyrubralactone], in data set [1], the “ACE2% inhibition” value is reported as 29.91 ± 4.26 %. In addition, the figures for the IC50 in data set [2] and in data set [3] were > 100 µM and 12.5 ± 0.46 µM, respectively.
In the case of `COc1cc(O)c2c(=O)oc3cc(O)cc(C)c3c2c1` [Compound 4, alternariol-5-O-methyl ether], the “ACE2% inhibition” value in data set [1] came out at 50.85 ± 4.34%. Further, the IC50 is 4.97 ± 0.28 µM against TNF-α: TNFR2 (IC50, TNF-α: TNFR2 inhibitory effect); > 100 µM in data set [2]; 11.7 ± 0.34 µM in data set [3]. Further, in data set [5], the “TNF-α mRNA expression fold change” value amounted to 0.28 ± 0.02. Also, the “IL-6 mRNA expression fold change” value in data set [6] turned out to be 0.14 ± 0.01.
